Test results published in patent US12077777B2, “Precursory regulatory cytotrophoblast cells and uses thereof” (Accelerated BioSciences Corp., priority 2019, dated 2024).
Values belong to the compound of their own block, whether it stands above or below them.

Key:
PI3K/AKT signaling = experiment: Gβ/PI3K/AKT/GSK3α/β pathway by blotting analysis in hTS cells; format: cell-based, human
Protocol: (§1) In cell culture, hTS cells were treated with bFGF and harvested at time as indicated and put into RIPA lysis solution (MILLIPORE®) supplemented with protease (Thermo Scientific) and phosphatase inhibitor (Cell Signaling Technology). After electrophoresis of 30 μg lysates on polyacrylamide gels, electroblotting onto PDVF membranes (MILLIPORE®) was performed. By blocking of 5% non-fat dry milk in PBS at room temperature (I hr), target proteins were incubated with primary antibodies. All membranes were incubated with chemiluminescent (MILLIPORE®) and imaging was captured by the CHEMIDOC® XRS system (BIO-RAD®). Antibodies used were listed in Key Resource Table. Data were analyzed by AlphaEaseFC (version 4.0.0).

FGFR1 = target: T1, FGFR1 (Homo sapiens, UniProt P11362); experiment: bFGF activation of FGFR1 and downstream PI3K signal, Western blot assay; format: cell-based; conditions: bFGF 10 ng/ml
T1 construct: endogenous in cells; host or cells: human trophoblast stem (hTS) cells
Protocol: as §1

CD56 = experiment: IL-8 induced CD56 via CXCR2/STAT3 signaling, Western blot assay; format: cell-based, human; conditions: IL-8 30 ng/ml
Protocol: as §1, with “After” for “In cell culture, hTS cells were treated with bFGF and harvested at time as indicated and put into RIPA lysis solution (MILLIPORE®) supplemented with protease (Thermo Scientific) and phosphatase inhibitor (Cell Signaling Technology). After”

Foxp3 = experiment: IL-8 induced Foxp3 via CXCR2/STAT3 signaling, Western blot; format: cell-based, human; conditions: IL-8 30 ng/ml; for IL-8-induced Foxp3 in presence of inhibitor: n=3 cell lines
Protocol: as §1, with “After” for “In cell culture, hTS cells were treated with bFGF and harvested at time as indicated and put into RIPA lysis solution (MILLIPORE®) supplemented with protease (Thermo Scientific) and phosphatase inhibitor (Cell Signaling Technology). After”

CD4 = experiment: IL-8 generated CD4(+) prCTBs, Western blot assay; format: cell-based, human; conditions: IL-8 30 ng/ml
Protocol: as §1, with “After” for “In cell culture, hTS cells were treated with bFGF and harvested at time as indicated and put into RIPA lysis solution (MILLIPORE®) supplemented with protease (Thermo Scientific) and phosphatase inhibitor (Cell Signaling Technology). After”

hTS cells = experiment: Insulin secretion by RIA in secretomic analysis; format: cell-based, human; conditions: hTS cells (1×10^6 cells), glucose 20 mM, gliclazide 10 μM, nifedipine 10 μM, n=3
Protocol: The hTS cell culture media (10 ml) were harvested at 80-90% confluence followed by centrifugation (3,000 rpm, 30 min, 4° C.). The supernatants were further concentrated to 1 ml by using 3 kDa VIVASPIN® concentrator (Sigma). The concentrated supernatant was further detected for TGF-β1, HLA-G, and PAI-1 by immunoblotting assay. IL-10 level was measured by OPTEIA® ELISA assay kit following the supplier's instructions (BD Pharmingen, San Diego). The range of detectable IL-10 concentration was between 2 and 2,000 pg/ml. An aliquot of 100 μl sample was measured in triplicate. Total protein of supernatant was measured by using Pierce BCA protein assay kit (THERMO […]®). […] Media were collected at different time (5, 10, 20, 30, 60 and 120 min), freeze dried by lyophilizer (VIRTIS®; Warminster), and rehydrated with sterile water (400 μl) for radioimmunoassay (RIA). C-peptide and insulin levels were determined by C-PEP II-RIA-CT (DIAsource ImmunoAssays S. A.) and Coat-A-Count insulin (Siemens Healthcare Diagnostics), respectively, in 5 assays.

prCTBs = experiment: Transwell invasion and migration assay, prCTBs; format: cell-based, human; conditions: dose- and time-dependent; 4×10^3 cells/ml; n=3
Protocol: […] To do this, add extracellular matrix (ECM) materials on top of the transwell membrane and then add cells on top of the ECM. For example, […]® is thawed and liquefied on ice, and then 30-50 μl of […]® is added to a 24-well transwell insert and solidified in a 37 C incubator for 15-30 minutes to form a thin gel layer. Cell solution is added on top of the […]® coating to simulate invasion through the extracellular matrix. The transwell cell migration assay measures the chemotactic capability of cells toward a chemo-attractant. The transwell cell invasion assay, however, measures both cell chemotaxis and the invasion of cells through extracellular matrix, a process that is commonly found in cancer metastasis or embryonic development. Using a pipette, very carefully add 600 μl of the desired chemo-attractant into the bottom of the lower chamber in a 24-well plate. Add the chemo-attractant without moving the transwell insert and avoid generating bubbles. Make sure the chemo-attractant liquid in the bottom well makes contact with the membrane in the upper well to form a chemotactic gradient. Incubation time is dependent on cell type and the chemo-attractant being used. Note: Further tests may be needed to determine the incubation period. […] The number of migrated cells can be counted by using hemocytometer or flow cytometer. […]

hTSCs [1] = experiment: Transwell invasion and migration assay, hTSCs; format: cell-based, human; conditions: dose- and time-dependent; 4×10^3 cells/ml; n=3
β-hCG = experiment: IL-6 induced β-hCG, Western blot assay; format: cell-based, human; conditions: IL-6 10 ng/ml, via GnRHR and IL-6R
Protocol: as §1, with “After” for “In cell culture, hTS cells were treated with bFGF and harvested at time as indicated and put into RIPA lysis solution (MILLIPORE®) supplemented with protease (Thermo Scientific) and phosphatase inhibitor (Cell Signaling Technology). After”

hTSCs [2] = experiment: RT-qPCR analysis of IL-6 / IL-8 treated hTSCs; format: cell-based, human; conditions: n=4; for CREB1 mRNA: IL-6 10 ng/ml or IL-8 30 ng/ml
Protocol: RNA was isolated from hTS cells in triplicate or quintuple samples using TRIZOL® reagent (INVITROGEN®) with DNAase I on-column digestion (Qiagen) according to manufacturer's protocol. Total RNA (500 ng) was used for reverse transcription with […] cDNA synthesis kit (BIO-RAD®). PCR carried out in duplicate using 1/40th of the cDNA per reaction and 400 nM forward and reverse primers. For miRNA stem-loop qPCR, we used single tube TAQMAN® miRNA assays as manufacturer's instruction (Applied Biosystems). All RT reactions, including no-template controls and RT minus controls, were carried out in a GENEAMP® PCR 9700 Thermocycler (Applied Biosystems). Comparative real-time PCR was performed in triplicate or quintuple, including no-template controls, using specific primers for miR-124 or RNU6B (Applied Biosystems). U6 snRNA (RNU6B; Applied Biosystems) served as an endogenous control. Relative expression was calculated using SDS2.2.2 software (Applied Biosystems) was used for comparative ΔCt analysis.

IL-6 and IL-8 = experiment: bFGF induction of IL-6 and IL-8; format: cell-based, human; conditions: bFGF 10 ng/ml; time-dependent; n=3 cell lines
Protocol: To explore how prCTBs produce cytokines IL-6 and IL-8, hTSCs were incubated with bFGF for 1-day mimicking the transient stay in the fallopian tube. Mechanistically, bFGF activated its receptor FGFR1 at cell membrane to induce PI3K/phosphorylated (p)AKT signaling. In turn, pAKT interacted and phosphorylated downstream pCREB1 (cAMP responsive element binding protein 1) to activate pCREB1 signaling. These molecular processes were verified by using FGFR 1 inhibitor PD166866, and specific shRNAs for PI3K and pAKT (FIGS. 7G-7J). In the nucleus, CREB1 targeted the genes to produce IL-6 in a time-dependent manner (FIG. 7K, left panel) and IL-8 (FIG. 7K, right panel) in a dose-dependent manner, confirmed by ELISA assay (FIG. 7C). These molecular processes occurred co-incidentally with EMT in time and space.

[3] = tested on: STAT3, c-JUN, Fas ligand (FasL), Fas; experiment: STAT3, c-JUN, FasL and Fas by immunoblotting assay; format: cell-based, human; conditions: bFGF 10 ng/ml
Protocol: as §1

hTSCs [4] = experiment: bFGF-induced epithelial-mesenchymal transition markers, Western blot assay; format: cell-based, human; conditions: bFGF 10 ng/ml
Protocol: as §1

T1 sequence (P11362 22-822): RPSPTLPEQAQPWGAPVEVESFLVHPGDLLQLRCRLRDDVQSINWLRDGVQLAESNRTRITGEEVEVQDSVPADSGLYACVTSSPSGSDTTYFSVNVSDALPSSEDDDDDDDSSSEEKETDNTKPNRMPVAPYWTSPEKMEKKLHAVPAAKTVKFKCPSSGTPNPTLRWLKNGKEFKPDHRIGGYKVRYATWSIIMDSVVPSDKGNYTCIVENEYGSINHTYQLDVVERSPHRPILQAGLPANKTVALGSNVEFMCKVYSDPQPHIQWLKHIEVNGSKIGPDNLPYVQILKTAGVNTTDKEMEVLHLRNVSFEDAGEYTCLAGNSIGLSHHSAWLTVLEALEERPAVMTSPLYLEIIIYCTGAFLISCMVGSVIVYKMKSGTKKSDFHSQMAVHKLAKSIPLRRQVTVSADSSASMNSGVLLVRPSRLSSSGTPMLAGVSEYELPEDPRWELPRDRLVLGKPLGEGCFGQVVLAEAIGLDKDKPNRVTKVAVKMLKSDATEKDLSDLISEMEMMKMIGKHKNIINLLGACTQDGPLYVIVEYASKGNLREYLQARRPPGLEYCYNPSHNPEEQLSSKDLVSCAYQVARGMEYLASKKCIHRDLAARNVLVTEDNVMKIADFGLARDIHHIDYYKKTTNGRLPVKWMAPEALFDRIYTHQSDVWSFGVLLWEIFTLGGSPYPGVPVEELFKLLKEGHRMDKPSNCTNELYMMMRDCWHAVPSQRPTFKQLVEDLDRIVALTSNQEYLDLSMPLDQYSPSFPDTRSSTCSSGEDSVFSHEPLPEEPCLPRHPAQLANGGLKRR

Compound: NC1(c2ccc(-c3nc4ccn5c(=O)[nH]nc5c4cc3-c3ccccc3)cc2)CCC1 [MK2206]
Gβ-induced phosphorylation of AKT (ser473) and GSK3α/β (ser21/9) in presence of inhibitor (PI3K/AKT signaling): inhibited

bFGF activation of FGFR1 and PI3K signal in presence of inhibitor (FGFR1): inhibited
Compound: COc1cc(OC)cc(-c2cc3cnc(N)nc3nc2NC(=O)NC(C)(C)C)c1 [PD166866, reference compound]

Compound: Cn1cc(C2=C(c3ccc(Cl)cc3Cl)C(=O)NC2=O)c2ccccc21 [SB216763]
pMAFA expression in presence of inhibitor (PI3K/AKT signaling): inhibited

Compound: O=C(Nc1ccc([N+](=O)[O-])cc1O)Nc1ccccc1Br [SB225002]
IL-8-induced CD56 in presence of inhibitor (CD56): inhibited | IL-8-induced Foxp3 in presence of inhibitor (Foxp3): inhibited | IL-8-induced CD4 in presence of inhibitor (CD4): inhibited

Compound: O=[N+]([O-])c1ccc2c(c1)S(=O)(=O)C=C2 [Stattic]
IL-8-induced CD56 in presence of inhibitor (CD56): inhibited | IL-8-induced Foxp3 in presence of inhibitor (Foxp3): inhibited | IL-8-induced CD4 in presence of inhibitor (CD4): inhibited

Compound: Cc1ccc(S(=O)(=O)NC(=O)NN2CC3CCCC3C2)cc1 (stereo not shown) [gliclazide]
insulin secretion (hTS cells): promoted insulin secretion

Compound: CXCL2: chemokine (C-X-C motif) ligand 2
movement (invasion and migration) of prCTBs (prCTBs): significantly induced movement | movement (invasion and migration) of hTSCs (hTSCs [1]): significantly induced movement

Compound: IL-6: interleukin 6
β-hCG induction (β-hCG): induced β-hCG | CREB1 mRNA (hTSCs [2]; hTSCs): upregulated | IL-6R mRNA (hTSCs [2]; IL-6 10 ng/ml, hTSCs): upregulated | β-hCG mRNA (hTSCs [2]; IL-6 10 ng/ml, hTSCs): upregulated

conventional receptor IL-8R mRNA (hTSCs [2]; IL-8 30 ng/ml): not
Compound: IL-8: interleukin 8
CD56 induction (CD56): induced CD56 | Foxp3 induction (Foxp3): induced Foxp3 | generation of CD4(+) prCTBs (CD4): generated CD4(+) prCTBs | CREB1 mRNA (hTSCs [2]; hTSCs): upregulates | CD56 mRNA (hTSCs [2]; IL-8 30 ng/ml): upregulates

Compound: MCP-1: monocyte chemoattractant protein-1
movement (invasion and migration) of prCTBs (prCTBs): significantly induced movement | movement (invasion and migration) of hTSCs (hTSCs [1]): significantly induced movement

Compound: bFGF: basic fibroblast growth factor
IL-6 production (IL-6 and IL-8): induced | IL-8 production (IL-6 and IL-8): induced | activation of FGFR1 and downstream PI3K signal (FGFR1): activated | Fas level [3]: downregulation | Fas ligand (FasL) level [3]: upregulation | STAT3 level [3]: upregulation | c-JUN level [3]: upregulation | E-cadherin expression (hTSCs [4]): down-regulated | TGF-β1 expression (hTSCs [4]): up-regulated | vimentin expression (hTSCs [4]): up-regulated
